Reference: patent publication US20030091980A1, “Detection and characterization of psychoactives using analysis of network level physiological responses in a neuronal sample” (priority 2001, published 2003)

What was measured:
Type in all cases: cell-based, Sprague-Dawley rat
hippocampal slice [1] = assay: Carbachol-induced beta rhythms in hippocampal tissue (64-electrode recording, FFT); conditions: FIG. 2
Description: (§1) Procedures for the preparation of the recently introduced Multi-Electrode Dish (Panasonic: MED probe) are described by Oka et al., J Neurosci Methods 93: 61-67 (1999). The device has an array of 64 planar microelectrodes, each having a size of 50×50 μm, arranged in an 8 by 8 pattern. Probes used in the experiments described below were medium arrays with 300 μm interelectrode spacing (Panasonic: MED-P530AP).
A 17-25 day old Sprague-Dawley rat was sacrificed by decapitation after anesthesia using halothane (2-Bromo-2-chloro-1,1,1-trifluoroethane, Sigma: B4388), and the whole brain was removed. The brain was immediately soaked in ice-cold, oxygenated preparation buffer of the following composition (in mM): 124 NaCl, 26 NaHCO3, 10 glucose, 3 KCl, 1.25 NaH2PO4, 1.5 CaCl2, 0.5 MgSO4, for approximately 2 minutes. Appropriate portions of the brain were trimmed and placed on the ice-cold stage of a vibrating tissue slicer (Leica: VT-1000S). […]
During electrophysiological recording, the slices on the MED probe were placed in a small CO2 incubator (Yamato: model IC400) at 32° C. […] In this condition, responses were recorded for more than 2 hours. […]
(§2) Spontaneous and evoked field potentials at all 64 sites were recorded simultaneously with the multi-channel recording system (Panasonic: MED64 system) at a 20 kHz sampling rate. […]

hippocampal slice [2] = assay: Evoked responses following Schaffer collateral stimulation in presence and absence of carbachol (field potentials, current source density)
Experimental: (§3) A 17-25 day old Sprague-Dawley rat was sacrificed by decapitation after anesthesia using halothane (2-Bromo-2-chloro-1,1,1-trifluoroethane, Sigma: B4388), and the whole brain was removed. The brain was immediately soaked in ice-cold, oxygenated preparation buffer of the following composition (in mM): 124 NaCl, 26 NaHCO3, 10 glucose, 3 KCl, 1.25 NaH2PO4, 1.5 CaCl2, 0.5 MgSO4, for approximately 2 minutes. Appropriate portions of the brain were trimmed and placed on the ice-cold stage of a vibrating tissue slicer (Leica: VT-1000S). The stage was immediately filled with both oxygenated and frozen preparation buffers. The thickness of each tissue slice was 350 μm. Each slice was gently taken off the blade using a blunt-end pipette, and immediately soaked in oxygenated preparation buffer for at least 1 hour at room temperature. A slice was then placed on the center of the MED probe, positioned to cover the 8×8 array. After positioning the slice, the MED probe was placed directly in a box filled with 95% O2 and 5% CO2 and allowed to recover and adhere at 32° C. for 1 hour.
(§4) During electrophysiological recording, the slices on the MED probe were placed in a small CO2 incubator (Yamato: model IC400) at 32° C. The slices remained on the MED probe, which was attached to a recording interface, and a moisturized 95% O2 and 5% CO2 gas mixture was blown from above. In this condition, responses were recorded for more than 2 hours.
Carbachol was obtained from Sigma. A carbachol solution was applied to the neuronal samples at known concentrations of either 25 or 50 μM. The lower concentration was used in all except two cases. […] Carbachol solutions were prepared daily from frozen aliquots.
Spontaneous and evoked field potentials at all 64 sites were recorded simultaneously with the multi-channel recording system (Panasonic: MED64 system) at a 20 kHz sampling rate. In the case of the evoked response, one or more than two microelectrodes out of the 64 available were chosen for stimulating. Bipolar constant current pulses (20 to 40 μA, 0.1 msec) were produced by the data acquisition software through the isolator. The stimulating microelectrodes were selected by the 64 switchbox.
The method of continuous, two-dimensional current source density employed has been previously described (Shimono et al., supra). The 2-dimensional array of electrodes allows for simultaneous estimation of current flows in any direction within the plane of the slice. The data was low-pass filtered at 100 Hz and spatially smoothed by a 3×3-weighted average kernel (0 1/8 0, 1/8 1/2 1/8, and 0 1/8 0). […] A limitation of the technique is that only large spatial patterns, with radii≧one-half of the interelectrode distance, can be accurately resolved. Additionally, low-pass filtering removes high-frequency data, limiting the amount of fine detail that can be observed.

hippocampal slice [3] = assay: Network level evoked response to single pulse Schaffer commissural stimulation during carbachol-induced rhythms, multi-electrode dish
Description: as §1
For sufficient adhesion of the slice to the probe, the surface of the MED probe was treated with 0.1% polyethylenimine (Sigma: P-3143) in 25 mM borate buffer, pH 8.4, for 8 hours at room temperature. The probe surface was rinsed 3 times with sterile distilled water. The probe (chamber) was then filled with DMEM/F-12 mixed medium, containing 10% fetal bovine serum (GIBCO: 16141-079) and 10% horse serum (GIBCO: 16050-122), for at least 1 hour at 37° C. DMEM/F-12 mixed medium is a 1:1 mixture of Dulbecco's Modified Eagle's Medium and Ham's F-12 (GIBCO: D/F-12 medium, 12400-024), supplemented with N2 supplement (GIBCO: 17502-014) and hydrocortisone (20 nM, Sigma, H0888).
as §3, §4
Carbachol was obtained from Sigma. […]
as §2

[4] = CA1 apical dendrites, presence of carbachol
[5] = single pulse stimulation with carbachol, eight slices
[6] = 100 μM heptachlor, Schaffer commissural stimulation, FIG. 8

Structure (SMILES) | dominant frequency of rhythms (normalized power spectra, all 64 electrodes) (hippocampal slice [1]; 25 μM carbachol) | stability of rhythms (hippocampal slice [1]; after carbachol infusion) | intensity of activity (current source density) (hippocampal slice [2]; 25 μM carbachol vs without carbachol, 10 ms after stimulation) | spread of activity (current source density) (hippocampal slice [2]; 25 μM carbachol vs without carbachol, 10 ms after stimulation, particularly field CA3) | start of slow negative going component after stimulation (hippocampal slice [2]; [4]) | start of slow negative going component after the initial response (hippocampal slice [2]; [4]) | return to baseline after stimulation (hippocampal slice [2]; CA1 stratum radiatum and oriens, carbachol-induced beta waves, FIG. 4) | return to baseline of positive-going potential (hippocampal slice [2]; CA3 basal dendritic field, carbachol-driven beta rhythms, FIG. 5) | stimulation trials eliciting a sustained network response (hippocampal slice [2]; Schaffer collateral stimulation in the presence of cholinergic rhythms) | frequency of bursts of spikes accompanying the first carbachol dependent slow potential (hippocampal slice [2]; field CA3) | recordings with responses similar to the control responses (hippocampal slice [2]; [5]) | traces with bursts of spikes in CA3 stratum pyramidale and prominent after potentials in CA1 and CA3 (hippocampal slice [2]; [5]) | depolarizing phase of the slow component of the waveform (hippocampal slice [3]; 100 μM heptachlor, FIG. 8) | fast component, corresponding to the traditional evoked response (hippocampal slice [3]; [6]) | slow component of the network complex evoked response (hippocampal slice [3]; [6]) | network level evoked response to single pulse Schaffer commissural stimulation upon infusion (hippocampal slice [3]; figure legends FIGS. 8-11)
C[N+](C)(C)CCOC(N)=O [carbachol] | in the beta range | stable for over two hours | markedly increased | far greater | 25 ms | about 10 msec | 140 ms | approximately 125 ms | approximately 70% | 100-200 Hz | 16 of 53 | 37 of 53 | – | – | – | –
ClC1=C(Cl)C2(Cl)C3C(Cl)C=CC3C1(Cl)C2(Cl)Cl (stereo not shown) [heptachlor] | – | – | – | – | – | – | – | – | – | – | – | – | complete elimination | not changed | changed dramatically | changes
